# Results published in US20210047304A1, “Bromodomain Inhibitors” (AbbVie Inc., priority 2016, published 2021).
# pKi: −log10 of the molar value.
# Target: BRD4 (BDI_K57-E168) (Homo sapiens, UniProt O60885)
# Test: TR-FRET bromodomain binding assay, BRD4 BDI
# Description: A time-resolved fluorescence resonance energy transfer (TR-FRET) assay was used to determine the affinities of compounds of the Examples listed in Table 1 for each bromodomain of BRD4. […] An Alexa647-labeled BET-inhibitor was used as the fluorescent probe in the assay.
# (§1) Compound dilution series were prepared in DMSO via an approximately 3-fold serial dilution. Compound dilutions were added directly into white, low-volume assay plates (Perkin Elmer Proxiplate 384 Plus #6008280) using a Labcyte Echo in conjunction with Labcyte Access and Thermo Multidrop CombinL robotics. Compounds were then suspended in eight microliters (μL) of assay buffer (20 mM Sodium Phosphate, pH 6.0, 50 mM NaCl, 1 mM Ethylenediaminetetraacetic acid disodium salt dihydrate, 0.01% Triton X-100, 1 mM DL-Dithiothreitol) containing His-tagged bromodomain, Europium-conjugated anti-His antibody (Invitrogen PV5596) and Alexa-647-conjugated probe.
# After a one-hour equilibration at room temperature, TR-FRET ratios were determined using an Envision multilabel plate reader (Ex 340, Em 495/520).
# TR-FRET data were normalized to the means of 24 no-compound controls (“high”) and 8 controls containing 1 μM un-labeled probe (“low”). Percent inhibition was plotted as a function of compound concentration and the data were fit with the 4 parameter logistic equation to obtain IC50s. Inhibition constants (Ki) were calculated from the IC50s, probe Kd and probe concentration.
# Compound dilution series for Compounds A-E were prepared in DMSO via an approximately 3-fold serial dilution from 0.47 mM to 7.8 nM.
# as §1, with “Compound” for “Compound dilution series were prepared in DMSO via an approximately 3-fold serial dilution. Compound”
# TR-FRET data were normalized to the means of 24 no-compound controls (“high”) and 8 controls containing 1 μM un-labeled probe (“low”). Percent inhibition was plotted as a function of compound concentration and the data were fit with the 4 parameter logistic equation to obtain IC50s. Inhibition constants (Ki) were calculated from the IC50s, probe Kd and probe concentration. Typical Z′ values were between 0.65 and 0.75. The minimum significant ratio was determined to evaluate assay reproducibility (Eastwood et al., (2006) J Biomol Screen, 11: 253-261). The MSR was determined to be 2.03 for BDI and 1.93 for BDII, and a moving MSR (last six run MSR overtime) for both BDI and BDII was typically <3.
row,pKi,Structure (SMILES)
1,5.65,"Cc1cc(F)cc(C)c1Oc1ccc(C(C)(C)O)cc1-c1cn(C)c(=O)cc1O[C@H]1CC[C@H](N2CCCOC2=O)CC1 [Example 39, 3-[trans-4-({5-[2-(4-fluoro-2,6-dimethylphenoxy)-5-(2-hydroxypropan-2-yl)phenyl]-1-methyl-2-oxo-1,2-dihydropyridin-4-yl}oxy)cyclohexyl]-1,3-oxazinan-2-one]"
2,5.65,"COC(=O)N[C@H]1CC[C@H](Oc2cc(=O)n(C)cc2-c2cc(C(C)(C)O)cnc2Oc2c(C)cc(C(C)(C)O)cc2C)CC1 [Example 25, methyl [trans-4-({5′-(2-hydroxypropan-2-yl)-2′-[4-(2-hydroxypropan-2-yl)-2,6-dimethylphenoxy]-1-methyl-6-oxo[1,6-dihydro[3,3′-bipyridine]]-4-yl}oxy)cyclohexyl]carbamate]"
3,5.11,"CCNC(=O)[C@H]1CC[C@@H](Oc2cc(=O)n(C)cc2-c2cc(C(C)(C)O)ccc2Oc2c(C)cc(F)cc2C)CC1 [Example 76, cis-N-ethyl-4-({5-[2-(4-fluoro-2,6-dimethylphenoxy)-5-(2-hydroxypropan-2-yl)phenyl]-1-methyl-2-oxo-1,2-dihydropyridin-4-yl}oxy)cyclohexane-1-carboxamide]"
4,5.23,"Cc1cc(F)cc(C)c1Oc1ccc(C(C)(C)O)cc1-c1cn(C)c(=O)cc1O[C@H]1CC[C@H](N2C(=O)[C@@H]3CCCN3C2=O)CC1 [Example 91, (7aS)-2-[trans-4-({5-[2-(4-fluoro-2,6-dimethylphenoxy)-5-(2-hydroxypropan-2-yl)phenyl]-1-methyl-2-oxo-1,2-dihydropyridin-4-yl}oxy)cyclohexyl]tetrahydro-1H-pyrrolo[1,2-c]imidazole-1,3(2H)-dione]"
5,5.18,"Cc1cc(F)cc(C)c1Oc1ccc(C(C)(C)O)cc1-c1cn(C)c(=O)cc1O[C@H]1CC[C@H](N(C)C(=O)C(C)(C)C)CC1 [Example 59, N-[trans-4-({5-[2-(4-fluoro-2,6-dimethylphenoxy)-5-(2-hydroxypropan-2-yl)phenyl]-1-methyl-2-oxo-1,2-dihydropyridin-4-yl}oxy)cyclohexyl]-N,2,2-trimethylpropanamide]"
6,5.47,"Cc1cc(F)cc(C)c1Oc1ccc(C(C)(C)O)cc1-c1cn(C)c(=O)cc1O[C@H]1CC[C@H](N2C(=O)CCC2=O)CC1 [Example 44, 1-[trans-4-({5-[2-(4-fluoro-2,6-dimethylphenoxy)-5-(2-hydroxypropan-2-yl)phenyl]-1-methyl-2-oxo-1,2-dihydropyridin-4-yl}oxy)cyclohexyl]pyrrolidine-2,5-dione]"
7,6.00,"CC(=O)NC1(C)CCC(Oc2cc(=O)n(C)cc2-c2cc(C(C)(C)O)ccc2Oc2c(C)cc(F)cc2C)CC1 (stereo not drawn) [Example 32, N-[trans-4-({5-[2-(4-fluoro-2,6-dimethylphenoxy)-5-(2-hydroxypropan-2-yl)phenyl]-1-methyl-2-oxo-1,2-dihydropyridin-4-yl}oxy)-1-methylcyclohexyl]acetamide]"
8,5.46,"Cc1cc(F)cc(C)c1Oc1ccc(C(C)(C)O)cc1-c1cn(C)c(=O)cc1O[C@H]1CC[C@H](N2CCCS2(=O)=O)CC1 [Example 52, 2-[trans-4-({5-[2-(4-fluoro-2,6-dimethylphenoxy)-5-(2-hydroxypropan-2-yl)phenyl]-1-methyl-2-oxo-1,2-dihydropyridin-4-yl}oxy)cyclohexyl]-1lambda^6,2-thiazolidine-1,1-dione]"
9,5.40,"Cc1cc(F)cc(C)c1Oc1ccc(C(C)(C)O)cc1-c1cn(C)c(=O)cc1O[C@H]1CC[C@H](NC(=O)C(C)(C)CCO)CC1 [Example 47, N-[trans-4-({5-[2-(4-fluoro-2,6-dimethylphenoxy)-5-(2-hydroxypropan-2-yl)phenyl]-1-methyl-2-oxo-1,2-dihydropyridin-4-yl}oxy)cyclohexyl]-4-hydroxy-2,2-dimethylbutanamide]"
10,5.94,"CC(=O)N(N)[C@H]1CC[C@H](Oc2cc(=O)n(C)cc2-c2cc(C(C)(C)O)ccc2Oc2c(C)cc(F)cc2C)CC1 [Example 98, N-[trans-4-({5-[2-(4-fluoro-2,6-dimethylphenoxy)-5-(2-hydroxypropan-2-yl)phenyl]-1-methyl-2-oxo-1,2-dihydropyridin-4-yl}oxy)cyclohexyl]acetohydrazide]"
11,5.05,"COCC(=O)N1CCC(Oc2cc(=O)n(C)cc2-c2cc(C(C)(C)O)cnc2Oc2c(C)cc(F)cc2C)CC1 [Example 26, 2′-(4-fluoro-2,6-dimethylphenoxy)-5′-(2-hydroxypropan-2-yl)-4-{[1-(methoxyacetyl)piperidin-4-yl]oxy}-1-methyl[3,3′-bipyridin]-6(1H)-one]"
12,6.04,"COC(=O)NC[C@H]1C[C@H](Oc2cc(=O)n(C)cc2-c2cc(C(C)(C)O)ccc2Oc2c(C)cc(F)cc2C)C1 [Example 7, methyl {[trans-3-({5-[2-(4-fluoro-2,6-dimethylphenoxy)-5-(2-hydroxypropan-2-yl)phenyl]-1-methyl-2-oxo-1,2-dihydropyridin-4-yl}oxy)cyclobutyl]methyl}carbamate]"
13,5.76,"Cc1cc(F)cc(C)c1Oc1ccc(C(C)(C)O)cc1-c1cn(C)c(=O)cc1O[C@H]1CC[C@H](NC(=O)C23CC(C2)C3)CC1 (relative stereo) [Example 86, N-[trans-4-({5-[2-(4-fluoro-2,6-dimethylphenoxy)-5-(2-hydroxypropan-2-yl)phenyl]-1-methyl-2-oxo-1,2-dihydropyridin-4-yl}oxy)cyclohexyl]bicyclo[1.1.1]pentane-1-carboxamide]"
14,5.45,"CNC(=O)[C@H]1CC[C@H](Oc2cc(=O)n(C)cc2-c2cc(C(C)(C)O)ccc2Oc2c(C)cc(F)cc2C)CC1 [Example 101, trans-4-({5-[2-(4-fluoro-2,6-dimethylphenoxy)-5-(2-hydroxypropan-2-yl)phenyl]-1-methyl-2-oxo-1,2-dihydropyridin-4-yl}oxy)-N-methylcyclohexane-1-carboxamide]"
15,5.50,"Cc1ccc(=O)n([C@H]2CC[C@H](Oc3cc(=O)n(C)cc3-c3cc(C(C)(C)O)ccc3Oc3c(C)cc(F)cc3C)CC2)n1 [Example 130, 2-[trans-4-({5-[2-(4-fluoro-2,6-dimethylphenoxy)-5-(2-hydroxypropan-2-yl)phenyl]-1-methyl-2-oxo-1,2-dihydropyridin-4-yl}oxy)cyclohexyl]-6-methylpyridazin-3(2H)-one]"
16,5.55,"Cc1cc(F)cc(C)c1Oc1ccc(C(C)(C)O)cc1-c1cn(C)c(=O)cc1O[C@H]1CC[C@H](NC(=O)CCC(C)(C)O)CC1 [Example 119, N-[trans-4-({5-[2-(4-fluoro-2,6-dimethylphenoxy)-5-(2-hydroxypropan-2-yl)phenyl]-1-methyl-2-oxo-1,2-dihydropyridin-4-yl}oxy)cyclohexyl]-4-hydroxy-4-methylpentanamide]"
17,5.78,"Cc1cc(F)cc(C)c1Oc1ccc(C(C)(C)O)cc1-c1cn(C)c(=O)cc1O[C@H]1CC[C@H](NC(=O)C(C)(C)C)CC1 [Example 57, N-[trans-4-({5-[2-(4-fluoro-2,6-dimethylphenoxy)-5-(2-hydroxypropan-2-yl)phenyl]-1-methyl-2-oxo-1,2-dihydropyridin-4-yl}oxy)cyclohexyl]-2,2-dimethylpropanamide]"
18,5.60,"Cc1cc(F)cc(C)c1Oc1ccc(C(C)(C)O)cc1-c1cn(C)c(=O)cc1O[C@H]1CC[C@H](NC(=O)CCO)CC1 [Example 49, N-[trans-4-({5-[2-(4-fluoro-2,6-dimethylphenoxy)-5-(2-hydroxypropan-2-yl)phenyl]-1-methyl-2-oxo-1,2-dihydropyridin-4-yl}oxy)cyclohexyl]-3-hydroxypropanamide]"
19,5.65,"Cc1cc(F)cc(C)c1Oc1ccc(C(C)(C)O)cc1-c1cn(C)c(=O)cc1O[C@H]1CC[C@H](NC(=O)C2(C)COC2)CC1 [Example 73, N-[trans-4-({5-[2-(4-fluoro-2,6-dimethylphenoxy)-5-(2-hydroxypropan-2-yl)phenyl]-1-methyl-2-oxo-1,2-dihydropyridin-4-yl}oxy)cyclohexyl]-3-methyloxetane-3-carboxamide]"
20,5.92,"Cc1cc(F)cc(C)c1Oc1ccc(C(C)(C)O)cc1-c1cn(C)c(=O)cc1O[C@H]1CC[C@H](NC(=O)C23CC(N)(C2)C3)CC1 (relative stereo) [Example 93, 3-amino-N-[trans-4-({5-[2-(4-fluoro-2,6-dimethylphenoxy)-5-(2-hydroxypropan-2-yl)phenyl]-1-methyl-2-oxo-1,2-dihydropyridin-4-yl}oxy)cyclohexyl]bicyclo[1.1.1]pentane-1-carboxamide]"
